Values of other authors as cited in US20230310464A1, “USE OF C[…] THE TREATMENT OF SEIZURES ASSOCIATED WITH RARE […] SYNDROMES RELATED TO BRAIN INJURY” (GW Research Limited, priority 2020, published 2023).

System: seizures in patients with Lennox Gastaut syndrome
Settings: 100% CBD, half also with HIE, Morales et al.; cited from earlier work

## C=C(C)[C@@H]1CCC(C)=C[C@H]1c1c(O)cc(CCCCC)cc1O [CBD, cannabidiol]
  effect on seizures in LGS patients (in words): a reduction in seizures was obtained
